The values that follow come from patent publication US20240122893A1 (priority 2021, published 2024).

In data set [1] the test system is SARS-CoV-2. The note with it: treatment of cells with NRF2 agonists; cited from earlier work.
In data set [2] the test system is HCoV-OC43. The data set is described as follows: microbe, parasite or virus in culture. The format is cell-based, Human coronavirus OC43.
The test system of data set [3] is SARS-CoV-2. The data set is described as follows: CPE inhibition assay, SARS-CoV-2 strains in Vero C1008 cells. Type of data set: cell-based.
For a further data set, the system named is MRC-5 cells. The note with it: human.
For data set [4], the system named is SARS-CoV-2/USA/WI1/2020. Conditions: for protein concentration in bronchoalveolar lavage (BAL), measure of lung injury: 6 days post-infection; for SARS-CoV-2 spike protein distribution in the lungs: vs infected untreated animals.
Data set [5] relates to SARS-CoV-2/USA/WI1/2020.
Protocol: Flow cytometry: Lungs were minced and incubated at 37° C. in an enzyme cocktail of RPMI containing 2.4 mg/ml collagenase I and 20 μg/ml DNase (Invitrogen), then mashed through a 70-μm nylon cell strainer (BD Falcon). […] For analysis immediately ex vivo, cells were washed once in PBS and immediately stained for viability with Biolegend Live/Dead Zombie NIR Fixable Viability Dye and Fc Block for 10 min at room temperature. Cell surface staining was performed in 100 uL of 20% BD Horizon™ Brilliant Stain Buffer+ PBS with surface stain antibody cocktail for 20 min at room temperature. Cells were fixed and permeabilized with eBioscience™ FoxP3/Transcription Factor Staining kit 1× Fixation/Permeabilization reagent overnight at 4° C. Cells were washed with 1× Permeabilization/Wash buffer. Intracellular staining (ICS) was performed in 100 uL 1× Permeabilization/Wash buffer with ICS antibody cocktail for 45 min at room temperature. Cells were washed once with Permeabilization/Wash buffer then resuspended in Permeabilization/Wash buffer for acquisition by flow. Samples were run on a 3 laser Cytek Aurora spectral flow cytometer. FCS files were analyzed using Flowjo v10 (10.6.2.) software.
Flow cytometry. Lungs were minced and incubated at 37° C. in an enzyme cocktail of RPMI containing 2.4 mg/mi collagenase I and 20 μg/ml DNase (Invitrogen), then mashed through a 70-μm nylon cell strainer (BD Falcon). […] For analysis immediately ex vivo, cells were washed once in PBS and immediately stained for viability with Biolegend Live/Dead Zombie NIR Fixable Viability Dye and Fc Block for 10 min at room temperature. Cell surface staining was performed in 100 μL of 20% BD Horizon™ Brilliant Stain Buffer+ PBS with surface stain antibody cocktail for 20 min at room temperature. Cells were fixed and permeabilized with eBioscience™ FoxP3/Transcription Factor Staining kit 1× Fixation/Permeabilization reagent overnight at 4° C. Cells were washed with 1× Permeabilization/Wash buffer. Intracellular staining (ICS) was performed in 100 μL 1× Permeabilization/Wash buffer with ICS antibody cocktail for 45 min at room temperature. Cells were washed once with Permeabilization/Wash buffer then resuspended in Permeabilization/Wash buffer for acquisition by flow. […] For the myeloid flow cytometry functional staining, the cells were incubated with protein transport inhibitors for 4 h. Samples were run on a 3 laser Cytek Aurora spectral flow cytometer or a FACSAria II spectral flow cytometer (BD). FCS files were analyzed using Flowjo v10.6.2 software (BD). […] High-dimensional unbiased analysis of cell phenotypes was performed using Flowjo plugins DownSample v3 and UMAP.
For data set [6] the following is noted: cited from earlier work.
Data set [7] has as its system SARS-CoV-2. Nature of the data set: organism not typed. The note with it: Caco-2, read-out: IC50, reduction of viral RNA.
Protocol: vRNA determination: Zymo Quick-RNA Viral 96 Kit (Zymo Research) was used to isolate RNA from cell supematants according to the manufacturer's protocol. cDNA synthesis was performed using qScript cDNA Supermix containing randomhexamers and oligo-dT primers following the manufacture's protocol (Quanta Biosciences). Real-time PCR was performed in technical triplicate for each sample using TaqMan Fast Advanced Master Mix (Applied Biosystems) on a StepOne Plus Real Time PCR machine (Applied Biosystems). […] The cycling parameters were as follows: (i) 2 min at 50° C.; (ii) 2 min at 95° C.; and (iii) 45 cycles at 95° C. for 3s and 55° C. for 30 s. Molecular standard curves were generated using serial dilutions of a plasmid containing the complete SARS-CoV-2N gene (Integrated DNA Technologies, Catalog #10006625).
Viral RNA determination. Zymo Quick-RNA Viral 96 Kit (Zymo Research) was used to isolate RNA from cell supematants according to the manufacturer's protocol. cDNA synthesis was performed using qScript cDNA Supermix containing random hexamers and oligo-dT primers following the manufacture's protocol (Quanta Biosciences). Real-time quantitative reverse transcription
PCR (RT-qPCR) was performed in technical triplicate for each sample using TaqMan Fast Advanced Master Mix (Applied Biosystems) on a StepOne Plus Real Time PCR machine (Applied Biosystems). […]
The test system of data set [8] is HCoV-OC43. The data set is described as follows: microbe, parasite or virus in culture. The note with it: Betacoronavirus 1, OC43, MRC5, read-out: IC50, median inhibitory concentration.
Setting [9] is: 30 mg/kg daily oral gavage, vs untreated infected controls.
Setting [10] is: after PMA/ionomycin stimulation.

Structures are written as SMILES. Structures can show the parent of a compound that is named as a salt. Where two headings read alike, the source gives them in different places.

For `C=C(CC(=O)OCCCCCCCC)C(=O)O` [4-octyl-itaconate], the “replication of SARS-CoV-2 in vitro” value in the data set with SARS-CoV-2 [1] was “inhibited replication”.
On to `CCC(CC)COC(=O)[C@H](C)N[P@](=O)(OC[C@H]1O[C@@](C#N)(c2ccc3c(N)ncnn23)[C@H](O)[C@@H]1O)Oc1ccccc1` [RDV, remdesivir, reference compound], for which the IC50 in the data set on HCoV-OC43 [2] (Betacoronavirus 1, OC43, Vero C1008, drug added 1-2 h before virus, read-out: IC50, median inhibitory concentration) was 22 µM; in the data set with SARS-CoV-2 [3] (Severe acute respiratory syndrome coronavirus 2, Vero C1008, SARS-CoV-2, FIG. 2E, Vero C1008, drug 1 h before virus, read-out: IC50), 4 µM; with SARS-CoV-2 [3] (Severe acute respiratory syndrome coronavirus 2, Vero C1008, four strains of SARS-CoV-2 (Example 1), read-out: IC50) it was 4 to 9 µM. In the data set on Vero C1008 cells (Vero C1008, drug added 1-2 h before virus (HCoV-OC43 assay)), the “TD50, median cytotoxic dose” value came out at 142 µM.
For `C[S+]([O-])CCCCN=C=S` (centres unmarked) [SFN, sulforaphane], the IC50 in the data set on HCoV-OC43 [2] (Betacoronavirus 1, OC43, Vero C1008, 24 h, Vero C1008, established infection, drug added 24 h after virus, read-out: IC50, median inhibitory concentration) is 18 µM; in the data set on HCoV-OC43 [2] (Betacoronavirus 1, OC43, Vero C1008, Vero C1008, drug 24 h before virus, drug washed out and then virus added, read-out: IC50, median inhibitory concentration) it was 21 µM; in the data set on HCoV-OC43 [2] (Betacoronavirus 1, OC43, Vero C1008, read-out: IC50, median inhibitory concentration, Vero C1008, drug added 1-2 h before virus), 10 µM; in the data set with SARS-CoV-2 [3] (614G+ clinical strain USA/DCHP-7/2020 (DC)) it was 29 µM; with SARS-CoV-2 [3] (614G+ clinical strain USA/MDHP-20/2020 (MD)) it was 28 µM; in the data set with SARS-CoV-2 [3] (Severe acute respiratory syndrome coronavirus 2, Vero C1008, 614G+ clinical strain USA/DCHP-7/2020 (DC)), 51 µM. The IC50 was 48 µM with SARS-CoV-2 [3] (Severe acute respiratory syndrome coronavirus 2, Vero C1008, 614G+ clinical strain USA/MDHP-20/2020 (MD)); 13 µM with SARS-CoV-2 [3] (Severe acute respiratory syndrome coronavirus 2, Vero C1008, 24 h, SARS-CoV-2-Wuhan-Hu-1, established infection, drug added 24 h after virus, read-out: IC50, median inhibitory concentration); 15 to 17 µM in the data set on SARS-CoV-2 [3] (Severe acute respiratory syndrome coronavirus 2, Vero C1008, both reference strains, Wuhan-Hu-1 and USA-WA1/2020 (Example 1)); 12 µM in the data set on SARS-CoV-2 [3] (Severe acute respiratory syndrome coronavirus 2, Vero C1008, read-out: IC50, median inhibitory concentration, SARS-CoV-2-Wuhan-Hu-1, Vero C1008, drug 1-2 h before virus); 31 µM in the data set with SARS-CoV-2 [3] (Severe acute respiratory syndrome coronavirus 2, Vero C1008, reference strain USA-WA1/2020, drug 1 h before virus (Example 2)); 2.4 µM with SARS-CoV-2 [7]. Moreover, in the data set on HCoV-OC43 [8], the IC50 is 18 µM. Also, the “TD50, median cytotoxic dose, range over assays” value with Vero C1008 cells (African green monkey, human) fell in the range of 73 to 89 µM. Further, the “TD50, median cytotoxic dose” value with MRC-5 cells came out at 83 µM. In addition, the “bodyweight loss, less than infected untreated controls” value in the data set with SARS-CoV-2/USA/WI1/2020 [4] (30 mg/kg daily oral gavage from one day before inoculation, day 6 post inoculation) is 7.5%. Further, the “protein concentration in bronchoalveolar lavage (BAL), measure of lung injury” value with SARS-CoV-2/USA/WI1/2020 [4] (setting [9]) is listed as “significantly lower”; in the data set with SARS-CoV-2/USA/WI1/2020 [4] (30 mg/kg daily oral gavage, vs untreated infected controls, listed as sulforaphane), “lower”. Besides, in the data set on SARS-CoV-2/USA/WI1/2020 [4] (30 mg/kg daily oral gavage, P=0.1308), the “reduction in lung viral load, total SARS-CoV-2 N protein copies, not normalized to Pol2Ra” value is given as 1.46 log. For the same molecule, the “weight loss compared to controls” value with SARS-CoV-2/USA/WI1/2020 [4] (30 mg/kg daily oral gavage, day 6 post inoculation) was “lost significantly less weight”. The “reduction in lung viral load, SARS-CoV-2 N protein copies normalized to Pol2Ra” value with SARS-CoV-2/USA/WI1/2020 [4] (30 mg/kg daily oral gavage, vs infected untreated controls) turned out to be 1.5 log. Also, the “viral burden in BAL / alveolar fluid (qPCR)” value in the data set with SARS-CoV-2/USA/WI1/2020 [4] (setting [9]) was “significantly lower”. Further, the “histopathology score of lung inflammation” value in the data set on SARS-CoV-2/USA/WI1/2020 [4] (30 mg/kg daily, untreated controls 6/16) is listed as 1/16. Moreover, the “lung viral load, treated vs controls (Example 1)” value in the data set on SARS-CoV-2/USA/WI1/2020 [4] (daily oral gavage from one day before inoculation) was “no statistically significant differences”. For the same molecule, the “reduction of viral replication in the lungs” value in the data set with SARS-CoV-2/USA/WI1/2020 [4] (prophylactic SFN treatment) was 1.5 orders of magnitude. For the same molecule, the figures for the “SARS-CoV-2 spike protein distribution in the lungs” value in the data set on SARS-CoV-2/USA/WI1/2020 [4] and in the data set with SARS-CoV-2/USA/WI1/2020 [4] (listed as sulforaphane) were “focal distribution” and “smaller area”, respectively. For the same molecule, in the data set with SARS-CoV-2/USA/WI1/2020 [4] (vs infected untreated mice), the “pulmonary pathology (H&E lung sections)” value is recorded as “lower degree of pulmonary pathology”. Moreover, in the data set with SARS-CoV-2/USA/WI1/2020 [5] (Example 1), the “B cells in the spleen and Ly6G+ neutrophils in the lung” value was “significantly higher expansion”. For the same molecule, in the data set with SARS-CoV-2/USA/WI1/2020 [5] (Example 1), the “CCR2 expression on alveolar macrophages” value is “reduced”. For the same molecule, the “CD86 on lung-resident macrophages” value in the data set with SARS-CoV-2/USA/WI1/2020 [5] (Example 1) was “increased”. The “IL-10 and TGFβ produced by macrophages” value with SARS-CoV-2/USA/WI1/2020 [5] (Example 1) is recorded as “increased”. Besides, the “Ki67 and MHCII on CD8 T cells immediately ex vivo” value with SARS-CoV-2/USA/WI1/2020 [5] (Example 1) is recorded as “upregulation”. The “PD-L1 expression on macrophages” value in the data set with SARS-CoV-2/USA/WI1/2020 [5] (Example 1) is on record as “lower levels”. Besides, the “frequency of B cells, cytotoxic NK cells and CD8 T cells” value in the data set on SARS-CoV-2/USA/WI1/2020 [5] (Example 1) is “increased frequency”. For the same molecule, the “expression of activation markers CD80, CD86, PD-L1, MHC-II on lung alveolar and interstitial macrophages” value in the data set with SARS-CoV-2/USA/WI1/2020 [5] (Example 2) is on record as “lower expression”. The “PD1, MHC-II and Ki-67 on lung CD8+ and CD4+ T cells, directly ex vivo” value in the data set on SARS-CoV-2/USA/WI1/2020 [5] (Example 2, P<0.05) is “significantly decreased”. In addition, the “frequencies of lung alveolar and interstitial macrophages producing IL-10, IL-1β, TNF-α, TGF-β” value in the data set on SARS-CoV-2/USA/WI1/2020 [5] (Example 2, P<0.05) is given as “significantly lower frequencies”. Besides, in the data set with SARS-CoV-2/USA/WI1/2020 [5] (P<0.0001), the “infection-induced increase of IL-1β in alveolar macrophages” value is “abrogated”. The “CPT1a+VDAC+ myeloid cells in lung” value with SARS-CoV-2/USA/WI1/2020 [5] (P=0.01) is recorded as “significantly decreased”. Besides, the “percentage of monocytes and CD11c+ dendritic cells out of total CD45+ immune cells in the lungs” value with SARS-CoV-2/USA/WI1/2020 [5] (P=0.01) is “significantly decreased”. Also, in the data set with SARS-CoV-2/USA/WI1/2020 [5] (setting [10]), the “IFN-γ and IL-10 from lung CD4+ T cells” value is “lower levels”. In the data set with SARS-CoV-2/USA/WI1/2020 [5] (setting [10]), the “frequency of IL-4 and IL-17 in CD4+ T cells” value is given as “not significantly altered”. Further, the “TNF-α in alveolar macrophages and IFN-γ in T cells” value in the data set on SARS-CoV-2/USA/WI1/2020 [5] (mouse, in vivo) is “reduction”. Besides, in the data set with SARS-CoV-2/USA/WI1/2020 [5] (vs infected untreated mice), the “recruitment of myeloid cells (monocytes, dendritic cells) into the lungs” value is given as “significantly reduced”. Besides, the tolerability result in data set [6] (SFN-rich broccoli sprouts corresponding to 50 to 400 μmol SFN daily) is on record as “well tolerated without clinically significant adverse effects”. Also, the elimination from plasma entry in data set [6] (in vivo) is “rapidly eliminated from plasma”.
With `COC(=O)/C=C/C(=O)OC` [dimethyl fumarate], the “replication of SARS-CoV-2 in vitro” value in the data set with SARS-CoV-2 [1] is given as “inhibited replication”.
